For 2 compounds, IC50 results are on record in patent US5624936A, “Inhibitors of farnesyl-protein transferase” (Merck & Co., Inc., priority 1996, dated 1997).

In this assay the target is T1, human FPTase (Homo sapiens, UniProt P49354+P49356).
T1 construct: made in house
The experiment in a line: In vitro inhibition of human farnesyl-protein transferase (FPTase). Format: biochemical. To be noted: 100 nM Ras-CVIM substrate, [3H]-FPP, 30 min; read-out: IC50, inhibitory activity against human FPTase.

Where a name gives a salt, the structure may show the parent alone.

On to `CC[C@H](C)[C@@H](CN1Cc2ccccc2C[C@H]1C(=O)N[C@@H](CCSC)C(=O)O)NC(=O)[C@@H]1CCC(=O)N1` [Example 3, Step B, N-[L-Pyroglutamyl-2(S)-amino-3(S)-methylpentyl]-1,2,3,4-tetrahydro-3(S)-isoquinolinecarbonyl-methionine trifluoroacetate], for which the IC50 (as a rule, the concentration that gives 50% inhibition) is less than 10 µM.
As for `CC[C@H](C)[C@@H](CN1Cc2ccccc2C[C@H]1C(=O)N[C@@H](CCSC)C(=O)O)NC(=O)Cc1c[nH]cn1` [Examples 1. Step G, N-[(1H-imidazol-4-ylacetyl)-2(S)-amino-3(S)-methylpentyl]-1,2,3,4-tetrahydro-3(S)-isoquinolinecarbonyl-methionine trifluoroacetate], the IC50 is less than 10 µM.
